Measured values from patent US5516759A, “LHRH antagonists having lactam groups at the N-terminus” (TAP Holdings Inc., priority 1994, dated 1996).
Where a SMILES comes first, the peptide text is derived from it. Side-chain parts run from the residue outwards. [ ]: non-standard residue; d: D form. The star is where a group is joined. d2Nal(N,N-C(O)(CH2)4) = O=C1CCCCN1[C@H](Cc1ccc2ccccc2c1)C(=O)*; d2Nal(N,N-(CH2)3CO) = O=C1CCCN1[C@H](Cc1ccc2ccccc2c1)C(=O)*; Shikimoyl = O=C(C1=C[C@@H](O)[C@@H](O)[C@H](O)C1)*; Acetyl(2-oxopyrrolidin-1-yl) = O=C1CCCN1CC(=O)*; dPhe(4-Cl) = N[C@H](Cc1ccc(Cl)cc1)C(=O)O; d1Nal = N[C@H](Cc1cccc2ccccc12)C(=O)O; d(hCit) = NC(=O)NCCCC[C@@H](N)C(=O)O; Lys(iPr) = CC(C)NCCCC[C@H](N)C(=O)O; NMeY = CN[C@@H](Cc1ccc(O)cc1)C(=O)O; dCit = NC(=O)NCCC[C@@H](N)C(=O)O; hArg = N=C(N)NCCCC[C@H](N)C(=O)O; d3Pal = N[C@H](Cc1cccnc1)C(=O)O; Nicotinoyl = O=C(c1cccnc1)*

Biological target: T1, LHRH (Rattus norvegicus, UniProt P30969)
T1 construct: endogenous in cells
T1 sequence (P30969 1-327): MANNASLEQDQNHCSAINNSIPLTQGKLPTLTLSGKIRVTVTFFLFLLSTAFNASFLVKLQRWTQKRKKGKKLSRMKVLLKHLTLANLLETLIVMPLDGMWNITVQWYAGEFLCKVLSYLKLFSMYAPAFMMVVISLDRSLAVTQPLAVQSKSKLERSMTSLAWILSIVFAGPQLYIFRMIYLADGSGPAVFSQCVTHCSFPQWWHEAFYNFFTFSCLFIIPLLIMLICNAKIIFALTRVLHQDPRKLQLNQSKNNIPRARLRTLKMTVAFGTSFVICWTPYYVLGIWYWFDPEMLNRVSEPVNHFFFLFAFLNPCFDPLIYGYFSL
Assay: in vitro test for LHRH antagonist potency (pA2)
Assay type: cell-based
Details: negative logarithm of the antagonist concentration required to shift the response curve produced by the agonist leuprolide to two-fold higher concentration
Procedure: Representative compounds of the present invention were evaluated in an in vitro test for LHRH antagonist potency (pA2). The test employed the method detailed in F. Haviv, et al. J. Med. Chem., 32:2340-2344 (1989). The values of pA2 are the negative logarithms of the concentration of the particular antagonist test compound required to shift the response curve produced by the agonist leuprolide to two-fold higher concentration. (Leuprolide is disclosed and claimed in U.S. Pat. No. 4,005,063.) Typically pA2 values of 9.5 or greater are indicative of good LHRH antagonist potency, with values of 10.0 or greater being preferred.

Row | SMILES | Kb
1 | CC(C)C[C@H](NC(=O)[C@@H](CCCNC(N)=O)NC(=O)[C@H](Cc1ccc(O)cc1)N(C)C(=O)[C@H](CO)NC(=O)[C@@H](Cc1cccc2ccccc12)NC(=O)[C@@H](Cc1ccc(Cl)cc1)NC(=O)CN1CCCC1=O)C(=O)N[C@@H](CCCNC(=N)N)C(=O)N1CCC[C@H]1C(=O)N[C@H](C)C(N)=O [Example 14, 5LactGly^1 -D4ClPhe^2 -D1Nal^3 -Ser^4 -NMeTyr^5 -DCit^6 -Leu^7 -Arg^8 -Pro^9 -DAla^10 NH2] ({Acetyl(2-oxopyrrolidin-1-yl)}-[dPhe(4-Cl)][d1Nal]S[NMeY][dCit]LRP[dA]-NH2) | 0.0178 nM
2 | CC(C)C[C@H](NC(=O)[C@@H](CCCCNC(=O)CNC(=O)C1=C[C@@H](O)[C@@H](O)[C@H](O)C1)NC(=O)[C@H](Cc1ccc(O)cc1)N(C)C(=O)[C@H](CO)NC(=O)[C@@H](Cc1cccnc1)NC(=O)[C@@H](Cc1ccc(Cl)cc1)NC(=O)[C@@H](Cc1ccc2ccccc2c1)N1CCCCC1=O)C(=O)N[C@@H](CCCNC(=N)N)C(=O)N1CCC[C@H]1C(=O)N[C@H](C)C(N)=O [Example 9, 6LactD2Nal^1 -D4ClPhe^2 -D3Pal^3 -Ser^4 -NMeTyr^5 -DLys(N-epsilon-Gly-Shik)^6 -Leu^7 -Arg^8 -Pro^9 -DAla^10 NH2] ({d2Nal(N,N-C(O)(CH2)4)}-[dPhe(4-Cl)][d3Pal]S[NMeY][dK]([Gly-Shikimoyl])LRP[dA]-NH2) | 0.0355 nM
3 | CC(C)C[C@H](NC(=O)[C@@H](CCCCNC(=O)c1cccnc1)NC(=O)[C@H](Cc1ccc(O)cc1)N(C)C(=O)[C@H](CO)NC(=O)[C@@H](Cc1cccnc1)NC(=O)[C@@H](Cc1ccc(Cl)cc1)NC(=O)[C@@H](Cc1ccc2ccccc2c1)N1CCCCC1=O)C(=O)N[C@@H](CCCCNC(C)C)C(=O)N1CCC[C@H]1C(=O)N[C@H](C)C(N)=O [Example 13, 6LactD2Nal^1 -D4ClPhe^2 -D3Pal^3 -Ser^4 -NMeTyr^5 -DLys(N-epsilon-Nic)^6 -Leu^7 -Lys(N-epsilon-Isopropyl)^8 -Pro^9 -DAla^10 NH2] ({d2Nal(N,N-C(O)(CH2)4)}-[dPhe(4-Cl)][d3Pal]S[NMeY][dK](Nicotinoyl)L[Lys(iPr)]P[dA]-NH2) | 0.0178 nM
4 | CC(C)C[C@H](NC(=O)[C@@H](CCCCNC(=O)CNC(=O)C1=C[C@@H](O)[C@@H](O)[C@H](O)C1)NC(=O)[C@H](Cc1ccc(O)cc1)N(C)C(=O)[C@H](CO)NC(=O)[C@@H](Cc1cccnc1)NC(=O)[C@@H](Cc1ccc(Cl)cc1)NC(=O)[C@@H](Cc1ccc2ccccc2c1)N1CCCCC1=O)C(=O)N[C@@H](CCCCNC(=N)N)C(=O)N1CCC[C@H]1C(=O)N[C@H](C)C(N)=O [Example 11, 6LactD2Nal^1 -D4ClPhe^2 -D3Pal^3 -Ser^4 -NMeTyr^5 -DLys(N-epsilon-Gly-Shik)^6 -Leu^7 -Harg^8 -Pro^9 -DAla^10 NH2] ({d2Nal(N,N-C(O)(CH2)4)}-[dPhe(4-Cl)][d3Pal]S[NMeY][dK]([Gly-Shikimoyl])L[hArg]P[dA]-NH2) | 0.0209 nM
5 | CC(C)C[C@H](NC(=O)[C@@H](CCCCNC(=O)C1=C[C@@H](O)[C@@H](O)[C@H](O)C1)NC(=O)[C@H](Cc1ccc(O)cc1)N(C)C(=O)[C@H](CO)NC(=O)[C@@H](Cc1cccnc1)NC(=O)[C@@H](Cc1ccc(Cl)cc1)NC(=O)[C@@H](Cc1ccc2ccccc2c1)N1CCCC1=O)C(=O)N[C@@H](CCCNC(=N)N)C(=O)N1CCC[C@H]1C(=O)N[C@H](C)C(N)=O [Example 2, 5LactD2Nal^1 -D4ClPhe^2 -D3Pal^3 -Ser^4 -NMeTyr^5 -DLys(N-epsilon-Shik)^6 -Leu^7 -Arg^8 -Pro^9 -DAla^10 NH2] ({d2Nal(N,N-(CH2)3CO)}-[dPhe(4-Cl)][d3Pal]S[NMeY][dK](Shikimoyl)LRP[dA]-NH2) | 0.0263 nM
6 | CC(C)C[C@H](NC(=O)[C@@H](CCCCNC(=O)C1=C[C@@H](O)[C@@H](O)[C@H](O)C1)NC(=O)[C@H](Cc1ccc(O)cc1)N(C)C(=O)[C@H](CO)NC(=O)[C@@H](Cc1cccnc1)NC(=O)[C@@H](Cc1ccc(Cl)cc1)NC(=O)[C@@H](Cc1ccc2ccccc2c1)N1CCCCC1=O)C(=O)N[C@@H](CCCNC(=N)N)C(=O)N1CCC[C@H]1C(=O)N[C@H](C)C(N)=O [Example 8, 6LactD2Nal^1 -D4ClPhe^2 -D3Pal^3 -Ser^4 -NMeTyr^5 -DLys(N-epsilon-Shik)^6 -Leu^7 -Arg^8 -Pro^9 -DAla^10 NH2] ({d2Nal(N,N-C(O)(CH2)4)}-[dPhe(4-Cl)][d3Pal]S[NMeY][dK](Shikimoyl)LRP[dA]-NH2) | 0.0129 nM
7 | CC(C)C[C@H](NC(=O)[C@@H](CCCNC(N)=O)NC(=O)[C@H](Cc1ccc(O)cc1)N(C)C(=O)[C@H](CO)NC(=O)[C@@H](Cc1cccnc1)NC(=O)[C@@H](Cc1ccc(Cl)cc1)NC(=O)[C@@H](Cc1ccc2ccccc2c1)N1CCCC1=O)C(=O)N[C@@H](CCCNC(=N)N)C(=O)N1CCC[C@H]1C(=O)N[C@H](C)C(N)=O [Example 1, 5LactD2Nal^1 -D4ClPhe^2 -D3Pal^3 -Ser^4 -NMeTyr^5 -DCit^6 -Leu^7 -Arg^8 -Pro^9 -DAla^10 NH2] ({d2Nal(N,N-(CH2)3CO)}-[dPhe(4-Cl)][d3Pal]S[NMeY][dCit]LRP[dA]-NH2) | 0.00813 nM
8 | CC(C)C[C@H](NC(=O)[C@@H](CCCCNC(=O)c1cccnc1)NC(=O)[C@H](Cc1ccc(O)cc1)N(C)C(=O)[C@H](CO)NC(=O)[C@@H](Cc1cccnc1)NC(=O)[C@@H](Cc1ccc(Cl)cc1)NC(=O)[C@@H](Cc1ccc2ccccc2c1)N1CCCC1=O)C(=O)N[C@@H](CCCCNC(C)C)C(=O)N1CCC[C@H]1C(=O)N[C@H](C)C(N)=O [Example 7, 5LactD2Nal^1 -D4ClPhe^2 -D3Pal^3 -Ser^4 -NMeTyr^5 -DLys(N-epsilon-Nic)^6 -Leu^7 -Lys(N-epsilon-Isopropyl)^8 -Pro^9 -DAla^10 NH2] ({d2Nal(N,N-(CH2)3CO)}-[dPhe(4-Cl)][d3Pal]S[NMeY][dK](Nicotinoyl)L[Lys(iPr)]P[dA]-NH2) | 0.0372 nM
9 | CC(C)C[C@H](NC(=O)[C@@H](CCCCNC(=O)CNC(=O)C1=C[C@@H](O)[C@@H](O)[C@H](O)C1)NC(=O)[C@H](Cc1ccc(O)cc1)N(C)C(=O)[C@H](CO)NC(=O)[C@@H](Cc1cccnc1)NC(=O)[C@@H](Cc1ccc(Cl)cc1)NC(=O)[C@@H](Cc1ccc2ccccc2c1)N1CCCC1=O)C(=O)N[C@@H](CCCNC(=N)N)C(=O)N1CCC[C@H]1C(=O)N[C@H](C)C(N)=O [Example 3, 5LactD2Nal^1 -D4ClPhe^2 -D3Pal^3 -Ser^4 -NMeTyr^5 -DLys(N-epsilon-Gly-Shik)^6 -Leu^7 -Arg^8 -Pro^9 -DAla^10 NH2] ({d2Nal(N,N-(CH2)3CO)}-[dPhe(4-Cl)][d3Pal]S[NMeY][dK]([Gly-Shikimoyl])LRP[dA]-NH2) | 0.0209 nM
10 | CC(C)C[C@H](NC(=O)[C@@H](CCCCNC(N)=O)NC(=O)[C@H](Cc1ccc(O)cc1)NC(=O)[C@H](CO)NC(=O)[C@@H](Cc1cccnc1)NC(=O)[C@@H](Cc1ccc(Cl)cc1)NC(=O)[C@@H](Cc1ccc2ccccc2c1)N1CCCC1=O)C(=O)N[C@@H](CCCCNC(C)C)C(=O)N1CCC[C@H]1C(=O)N[C@H](C)C(N)=O [Example 12, 5LactD2Nal^1 -D4ClPhe^2 -D3Pal^3 -Ser^4 -Tyr^5 -DHcit^6 -Leu^7 -Lys(isp)^8 -Pro^9 -DAla^10NH2] ({d2Nal(N,N-(CH2)3CO)}-[dPhe(4-Cl)][d3Pal]SY[d(hCit)]L[Lys(iPr)]P[dA]-NH2) | 0.0178 nM
11 | CC(C)C[C@H](NC(=O)[C@@H](CCCCNC(=O)C1=C[C@@H](O)[C@@H](O)[C@H](O)C1)NC(=O)[C@H](Cc1ccc(O)cc1)N(C)C(=O)[C@H](CO)NC(=O)[C@@H](Cc1cccnc1)NC(=O)[C@@H](Cc1ccc(Cl)cc1)NC(=O)[C@@H](Cc1ccc2ccccc2c1)N1CCCCC1=O)C(=O)N[C@@H](CCCCNC(=N)N)C(=O)N1CCC[C@H]1C(=O)N[C@H](C)C(N)=O [Example 10, 6LactD2Nal^1 -D4ClPhe^2 -D3Pal^3 -Ser^4 -NMeTyr^5 -DLys(N-epsilon-Shik)^6 -Leu^7 -Harg^8 -Pro^9 -DAla^10 NH2] ({d2Nal(N,N-C(O)(CH2)4)}-[dPhe(4-Cl)][d3Pal]S[NMeY][dK](Shikimoyl)L[hArg]P[dA]-NH2) | 0.0209 nM
12 | CC(C)C[C@H](NC(=O)[C@@H](CCCCNC(=O)CNC(=O)C1=C[C@@H](O)[C@@H](O)[C@H](O)C1)NC(=O)[C@H](Cc1ccc(O)cc1)N(C)C(=O)[C@H](CO)NC(=O)[C@@H](Cc1cccnc1)NC(=O)[C@@H](Cc1ccc(Cl)cc1)NC(=O)[C@@H](Cc1ccc2ccccc2c1)N1CCCC1=O)C(=O)N[C@@H](CCCCNC(=N)N)C(=O)N1CCC[C@H]1C(=O)N[C@H](C)C(N)=O [Example 5, 5LactD2Nal^1 -D4ClPhe^2 -D3Pal^3 -Ser^4 -NMeTyr^5 -DLys(N-epsilon-Gly-Shik)^6 -Leu^7 -Harg^8 -Pro^9 -DAla^10 NH2] ({d2Nal(N,N-(CH2)3CO)}-[dPhe(4-Cl)][d3Pal]S[NMeY][dK]([Gly-Shikimoyl])L[hArg]P[dA]-NH2) | 0.00646 nM
13 | CC(C)C[C@H](NC(=O)[C@@H](CCCCNC(=O)C1=C[C@@H](O)[C@@H](O)[C@H](O)C1)NC(=O)[C@H](Cc1ccc(O)cc1)N(C)C(=O)[C@H](CO)NC(=O)[C@@H](Cc1cccnc1)NC(=O)[C@@H](Cc1ccc(Cl)cc1)NC(=O)[C@@H](Cc1ccc2ccccc2c1)N1CCCC1=O)C(=O)N[C@@H](CCCCNC(=N)N)C(=O)N1CCC[C@H]1C(=O)N[C@H](C)C(N)=O [Example 4, 5LactD2Nal^1 -D4ClPhe^2 -D3Pal^3 -Ser^4 -NMeTyr^5 -DLys(N-epsilon-Shik)^6 -Leu^7 -Harg^8 -Pro^9 -DAla^10 NH2] ({d2Nal(N,N-(CH2)3CO)}-[dPhe(4-Cl)][d3Pal]S[NMeY][dK](Shikimoyl)L[hArg]P[dA]-NH2) | 0.00692 nM
